Data on 8 compounds can be found in patent publication US12054494B2, “Compound with anticancer activity” (KYOWA KIRIN CO., LTD., priority 2018, dated 2024).

Structures are written as SMILES. Where a name gives a salt, the structure may show the parent alone.

The test has as its system SU-DHL-4 cells. Nature of the test: Inhibitory effect on cell viability (Cell Counting Kit-8). The class given is cell-based. The conditions noted are these: Homo sapiens, 72 hours culture with test compound, concentration showing 90% inhibition rate of cell viability. In a few lines: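 IC90 corresponds to 90% loss of viability, measured as CCK-8 absorbance at 450 nm (2-3 h colour development). Compounds in 9 dilutions (0.1% DMSO) were applied for 72 h at 37° C to SU-DHL-4 lymphoma cells seeded at 2000/well in RPMI1640/10% FBS after 18-25 h preculture.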
As for `CCC(=O)N1c2ccccc2[C@H](Nc2ccc(Cc3cnc4n3CCN(Cc3ccc(N[C@@H]5C[C@H](C)N(C(=O)CC)c6ccccc65)cc3)C4)cc2)C[C@@H]1C` [Compound 5c, 1,1′-((2S,2′S,4R,4′R)-((((5,6-Dihydroimidazo[1,2-a]pyrazine-3,7(8H)-diyl)bis(methylene))bis(4,1-phenylene))bis(azanediyl))bis(2-methyl-3,4-dihydroquinoline-4,1(2H)-diyl))bis(propan-1-one)], it took 63.6 nM to reach the 90% level (IC90).
The compound `CCC(=O)N1c2ccccc2[C@H](Nc2ccc(NC(=O)CNCC(=O)Nc3ccc(N[C@@H]4C[C@H](C)N(C(=O)CC)c5ccccc54)cc3)cc2)C[C@@H]1C` [Compound 5d, 2,2′-Azanediylbis(N-(4-(((2S,4R)-2-methyl-1-propionyl-1,2,3,4-tetrahydroquinolin-4-yl)amino)phenyl)acetamide)] registered an IC90 of 0.67 nM.
The compound `CCC(=O)N1c2ccccc2[C@H](Nc2ccc(CNC3CN(C(=O)c4ccc(N[C@@H]5C[C@H](C)N(C(=O)CC)c6ccccc65)cc4)C3)cc2)C[C@@H]1C` [Compound 5e, 1-((2S,4R)-2-Methyl-4-((4-(((1-(4-(((2S,4R)-2-methyl-1-propionyl-1,2,3,4-tetrahydroquinolin-4-yl)amino)benzoyl)azetidin-3-yl)amino)methyl)phenyl)amino)-3,4-dihydroquinolin-1(2H)-yl)propan-1-one] had a concentration for an effect of 90% (IC90) of 5.93 nM.
With `CCC(=O)N1c2ccccc2[C@H](Nc2ccc(CNCCn3cc(-c4ccc(N[C@@H]5C[C@H](C)N(C(=O)CC)c6ccccc65)cc4)cn3)cc2)C[C@@H]1C` [Compound 5f, 1-((2S,4R)-2-Methyl-4-((4-(((2-(4-(4-(((2S,4R)-2-methyl-1-propionyl-1,2,3,4-tetrahydroquinolin-4-yl)amino)phenyl)-1H-pyrazol-1-yl)ethyl)amino)methyl)phenyl)amino)-3,4-dihydroquinolin-1(2H)-yl)propan-1-one] the figure was 24.7 nM.
The compound `CCC(=O)N1c2ccccc2[C@H](Nc2ccc(CNCc3nnc(-c4ccc(N[C@@H]5C[C@H](C)N(C(=O)CC)c6ccccc65)cc4)o3)cc2)C[C@@H]1C` [Compound 5g, 1-((2S,4R)-2-Methyl-4-((4-((((5-(4-(((2S,4R)-2-methyl-1-propionyl-1,2,3,4-tetrahydroquinolin-4-yl)amino)phenyl)-1,3,4-oxadiazol-2-yl)methyl)amino)methyl)phenyl)amino)-3,4-dihydroquinolin-1(2H)-yl)propan-1-one] yielded a concentration for an effect of 90% (IC90) of 2.53 nM.
`CCC(=O)N1c2ccccc2[C@H](Nc2ccc(CNCc3cn(-c4ccc(N[C@@H]5C[C@H](C)N(C(=O)CC)c6ccccc65)cc4)nn3)cc2)C[C@@H]1C` [Compound 5h, 1-((2S,4R)-2-Methyl-4-((4-((((1-(4-(((2S,4R)-2-methyl-1-propionyl-1,2,3,4-tetrahydroquinolin-4-yl)amino)phenyl)-1H-1,2,3-triazol-4-yl)methyl)amino)methyl)phenyl)amino)-3,4-dihydroquinolin-1(2H)-yl)propan-1-one] showed an IC90 of 0.12 nM.
The compound `CCC(=O)N1c2ccccc2[C@H](Nc2ccc(CNCC(=O)Nc3ccc(N[C@@H]4C[C@H](C)N(C(=O)CC)c5ccccc54)cc3)cc2)C[C@@H]1C` [Compound 5i, 2-((4-(((2S,4R)-2-Methyl-1-propionyl-1,2,3,4-tetrahydroquinolin-4-yl)amino)benzyl)amino)-N-(4-(((2S,4R)-2-methyl-1-propionyl-1,2,3,4-tetrahydroquinolin-4-yl)amino)phenyl)acetamide hydrochloride] yielded an IC90 of 4.49 nM.
`CCC(=O)N1c2ccccc2[C@H](Nc2ccc(NC(=O)CN3CC=C(c4ccc(N[C@@H]5C[C@H](C)N(C(=O)CC)c6ccccc65)cc4)CC3)cc2)C[C@@H]1C` [Compound 5k, N-(4-(((2S,4R)-2-Methyl-1-propionyl-1,2,3,4-tetrahydroquinolin-4-yl)amino)phenyl)-2-(4-(4-(((2S,4R)-2-methyl-1-propionyl-1,2,3,4-tetrahydroquinolin-4-yl)amino)phenyl)-3,6-dihydropyridin-1(2H)-yl)acetamide] returned an IC90 of 7.48 nM.
